In PubChem BioAssay (NCI):
Values joined by “and” are separate entries in the source; they are usually repeats but may differ in a detail not shown here. Equal entries are not always repeated.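 Cultured in 96-well plates, cells were exposed to test compound for 48 hours across five concentrations. Here, GI50 denotes the concentration required for 50% inhibition of growth. Definition used: TGI = concentration required for complete inhibition of growth.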

Experiments:
Assay in all cases: NCI-60 cell line screen, 48 h
SW-620 colon = test system: SW-620 colon
EKVX NSCLC = test system: EKVX NSCLC
SF-268 CNS = test system: SF-268 CNS
U251 CNS = test system: U251 CNS
HOP-92 NSCLC = test system: HOP-92 NSCLC
DLD-1 colon = test system: DLD-1 colon
DMS 114 small cell lung = test system: DMS 114 small cell lung
SR leukemia = test system: SR leukemia
HS 578T breast = test system: HS 578T breast
M14 melanoma = test system: M14 melanoma

| SMILES | GI50 (SW-620 colon) [µM] | GI50 (EKVX NSCLC) [µM] | TGI (EKVX NSCLC) | GI50 (SF-268 CNS) [µM] | TGI (SF-268 CNS) | GI50 (U251 CNS) [µM] | TGI (U251 CNS) | GI50 (HOP-92 NSCLC) [µM] | TGI (HOP-92 NSCLC) | TGI (DLD-1 colon) [µM] | TGI (DMS 114 small cell lung) [µM] | GI50 (SR leukemia) [µM] | GI50 (HS 578T breast) [µM] | TGI (HS 578T breast) | TGI (SW-620 colon) [µM] | TGI (M14 melanoma) [µM] | TGI (SR leukemia) [µM] |
| --- | --- | --- | --- | --- | --- | --- | --- | --- | --- | --- | --- | --- | --- | --- | --- | --- | --- |
| CN(C)CCCN1c2ccccc2Sc2ccc(C(F)(F)F)cc21 | 1.58 | 1.84 | 4.75 µM and 35.7 µM and 29.3 µM | 1.75 | 3.94 µM and 31.8 µM and 29.2 µM | 1.69 | 3.14 µM and 29.6 µM and 29.4 µM | 1.04 | 2.99 µM and 26.3 µM | 31.9 | 34 | 2.14 | 1.63 | 3.7 µM and 28.5 µM |  |  |  |
| O=c1cc(-c2ccccc2)oc2ccc(Cl)cc12 |  |  | > 97 µM |  | > 85.3 µM |  | > 91.7 µM |  | 73.2 µM | > 100 | > 100 |  |  | > 91.8 µM | > 100 | > 100 | > 46.4 |
| O=C1CCC(c2ccccc2)=NN1c1nc2ccccc2s1 |  |  | > 100 µM |  | > 83 µM |  | > 100 µM |  | > 73.8 µM | > 100 | > 100 |  |  | > 100 µM | > 100 | > 100 | > 84.6 |
| O=C1/C(=C/c2ccc(Cl)cc2)CCC1CNc1ccc(Cl)cc1 (centres undefined) |  |  | 38.4 µM |  | 40.6 µM |  | 29.6 µM |  | 50.4 µM | 10.7 | > 48.3 |  |  | 64.9 µM | 11.4 | 22.8 | 43.8 |
